# Measurements published in ChEMBL document CHEMBL1201862, “PubChem BioAssay data set” (2004).
# Calls of active or inactive are those of the source.
# Tests used:
# [1] = biological target: Voltage-dependent T-type calcium channel subunit alpha-1H (Homo sapiens, UniProt O95180); type: functional;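 further: channel activity triggered by adding a high calcium stimulation buffer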
# [2] = biological target: T1, High affinity choline transporter 1 (Homo sapiens, UniProt Q9GZV3); assay: human choline transporter potentiators, potency – cell-based, 10-point CRC, membrane potential dye, dose response (AID 602376); type: functional
# T1 sequence (Q9GZV3 whole entry): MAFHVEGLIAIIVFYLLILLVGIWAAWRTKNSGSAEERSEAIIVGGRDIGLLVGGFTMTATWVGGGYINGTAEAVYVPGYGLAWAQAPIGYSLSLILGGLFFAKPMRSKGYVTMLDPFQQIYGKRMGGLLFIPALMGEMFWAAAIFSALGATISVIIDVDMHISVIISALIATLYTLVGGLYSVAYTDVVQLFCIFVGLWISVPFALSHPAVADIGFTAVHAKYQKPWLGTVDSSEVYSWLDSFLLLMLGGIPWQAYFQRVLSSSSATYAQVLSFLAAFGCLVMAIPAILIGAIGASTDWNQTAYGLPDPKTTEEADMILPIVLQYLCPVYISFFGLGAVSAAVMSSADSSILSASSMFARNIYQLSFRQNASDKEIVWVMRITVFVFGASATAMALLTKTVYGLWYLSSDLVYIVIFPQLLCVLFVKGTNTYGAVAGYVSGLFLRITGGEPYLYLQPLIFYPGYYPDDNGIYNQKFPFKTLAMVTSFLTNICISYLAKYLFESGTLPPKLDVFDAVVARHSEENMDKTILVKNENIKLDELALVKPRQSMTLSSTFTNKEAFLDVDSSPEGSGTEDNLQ
# [3] = biological target: Potassium voltage-gated channel subfamily KQT member 2 (Rattus norvegicus, UniProt O88943); assay: blockers of KCNQ2 channel current – cell-based, automated electrophysiology, set II, rat KCNQ2, dose response (AID 588637); type: functional
# Caspase-3 [4] = biological target: T2, Caspase-3 (Homo sapiens, UniProt P42574); type: functional
# T2 sequence (P42574 whole entry): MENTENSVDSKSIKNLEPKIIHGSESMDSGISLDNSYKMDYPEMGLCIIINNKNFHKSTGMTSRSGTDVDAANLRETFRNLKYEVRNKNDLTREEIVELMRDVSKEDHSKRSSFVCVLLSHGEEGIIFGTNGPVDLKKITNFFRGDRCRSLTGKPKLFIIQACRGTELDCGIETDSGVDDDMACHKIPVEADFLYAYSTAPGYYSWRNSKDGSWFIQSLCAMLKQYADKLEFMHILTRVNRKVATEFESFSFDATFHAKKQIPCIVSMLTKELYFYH
# [5] = biological target: T3, Sentrin-specific protease 7 (Homo sapiens, UniProt Q9BQF6); type: functional;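 further: Luminescence-based dose-response confirmation of ultra-high-throughput screening hits, measuring inhibition of SENP7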
# T3 sequence (Q9BQF6 whole entry): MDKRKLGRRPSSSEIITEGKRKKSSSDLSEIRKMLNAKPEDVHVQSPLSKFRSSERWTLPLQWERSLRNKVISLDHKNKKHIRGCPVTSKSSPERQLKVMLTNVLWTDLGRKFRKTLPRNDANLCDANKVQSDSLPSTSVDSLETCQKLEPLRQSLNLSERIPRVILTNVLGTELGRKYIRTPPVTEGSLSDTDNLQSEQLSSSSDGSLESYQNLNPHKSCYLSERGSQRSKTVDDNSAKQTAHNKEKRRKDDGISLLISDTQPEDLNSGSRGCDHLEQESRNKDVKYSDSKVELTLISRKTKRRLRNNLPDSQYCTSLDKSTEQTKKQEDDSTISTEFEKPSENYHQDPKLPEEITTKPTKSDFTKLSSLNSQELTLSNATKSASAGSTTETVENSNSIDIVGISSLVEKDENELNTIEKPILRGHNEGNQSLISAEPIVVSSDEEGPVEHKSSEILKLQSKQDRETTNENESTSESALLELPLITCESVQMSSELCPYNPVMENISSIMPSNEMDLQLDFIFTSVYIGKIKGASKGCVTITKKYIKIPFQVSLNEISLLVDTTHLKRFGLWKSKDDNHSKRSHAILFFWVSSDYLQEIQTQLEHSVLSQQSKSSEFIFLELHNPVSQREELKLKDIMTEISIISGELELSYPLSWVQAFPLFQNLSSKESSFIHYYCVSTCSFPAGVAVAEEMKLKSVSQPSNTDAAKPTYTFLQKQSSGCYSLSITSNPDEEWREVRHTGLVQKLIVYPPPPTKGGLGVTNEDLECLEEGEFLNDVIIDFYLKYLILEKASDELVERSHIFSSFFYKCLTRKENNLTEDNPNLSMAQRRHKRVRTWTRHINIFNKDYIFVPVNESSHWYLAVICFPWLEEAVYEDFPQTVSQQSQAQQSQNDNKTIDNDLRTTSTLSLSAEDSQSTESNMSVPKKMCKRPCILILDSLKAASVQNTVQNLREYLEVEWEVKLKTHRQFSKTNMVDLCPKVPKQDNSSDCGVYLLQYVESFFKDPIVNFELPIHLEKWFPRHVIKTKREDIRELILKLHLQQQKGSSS
# [6] = biological target: T4, Sentrin-specific protease 6 (Homo sapiens, UniProt Q9GZR1); type: functional
# T4 sequence (Q9GZR1 whole entry): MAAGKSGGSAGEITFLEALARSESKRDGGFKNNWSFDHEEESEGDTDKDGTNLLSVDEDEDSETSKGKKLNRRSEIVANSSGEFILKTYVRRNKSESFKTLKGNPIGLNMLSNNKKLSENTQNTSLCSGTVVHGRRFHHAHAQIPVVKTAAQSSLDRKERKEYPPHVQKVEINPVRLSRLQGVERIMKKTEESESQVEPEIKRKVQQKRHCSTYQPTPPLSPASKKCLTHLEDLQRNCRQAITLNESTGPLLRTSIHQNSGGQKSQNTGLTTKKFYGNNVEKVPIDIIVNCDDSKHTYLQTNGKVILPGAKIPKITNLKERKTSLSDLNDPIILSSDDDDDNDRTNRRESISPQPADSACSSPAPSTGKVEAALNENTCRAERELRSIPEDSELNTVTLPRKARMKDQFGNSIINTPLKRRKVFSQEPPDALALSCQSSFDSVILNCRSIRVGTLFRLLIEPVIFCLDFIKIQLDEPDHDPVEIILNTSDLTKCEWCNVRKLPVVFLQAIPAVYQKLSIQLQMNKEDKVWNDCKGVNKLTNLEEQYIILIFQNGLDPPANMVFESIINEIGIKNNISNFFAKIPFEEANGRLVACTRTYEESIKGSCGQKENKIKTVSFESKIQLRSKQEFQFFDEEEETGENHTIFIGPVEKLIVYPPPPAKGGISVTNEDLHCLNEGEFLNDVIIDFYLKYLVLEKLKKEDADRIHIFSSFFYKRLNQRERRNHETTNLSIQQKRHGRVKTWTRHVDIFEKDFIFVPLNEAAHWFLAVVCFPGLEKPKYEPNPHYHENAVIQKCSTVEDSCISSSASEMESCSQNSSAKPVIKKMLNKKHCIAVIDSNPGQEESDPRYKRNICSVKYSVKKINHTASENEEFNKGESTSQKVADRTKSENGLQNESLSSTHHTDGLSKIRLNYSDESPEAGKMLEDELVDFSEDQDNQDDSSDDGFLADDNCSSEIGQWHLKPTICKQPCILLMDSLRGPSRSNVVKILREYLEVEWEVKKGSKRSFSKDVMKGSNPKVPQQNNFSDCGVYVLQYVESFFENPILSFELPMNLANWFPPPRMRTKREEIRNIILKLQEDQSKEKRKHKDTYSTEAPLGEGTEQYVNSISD
# [7] = biological target: T5, Sentrin-specific protease 8 (Homo sapiens, UniProt Q96LD8); type: functional;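 further: luminescence read-out of SENP8 inhibition, dose-response confirmation following an ultra-high-throughput screen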
# T5 sequence (Q96LD8 whole entry): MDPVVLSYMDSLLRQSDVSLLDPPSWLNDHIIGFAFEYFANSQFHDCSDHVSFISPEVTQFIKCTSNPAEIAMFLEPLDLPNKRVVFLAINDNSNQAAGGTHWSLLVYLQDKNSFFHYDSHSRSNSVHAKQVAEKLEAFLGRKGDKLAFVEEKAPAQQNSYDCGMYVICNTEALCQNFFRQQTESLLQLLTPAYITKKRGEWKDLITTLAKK
# [8] = biological target: T5, Sentrin-specific protease 8; assay: inhibition of human SENP8 cleavage activity – biochemical, luminescence, SAR follow-up (AID 504501); type: functional
# Caspase-3 [9] = biological target: T2, Caspase-3; assay: SAR Analysis of small molecule inhibitors of Sentrin-specific proteases (SENPs) using a Caspase-3 Selectivity assay. [Related pubchem assays (depositor defined):AID2540, AID2599, AID434973, AID489001]; type: functional
# [10] = biological target: T4, Sentrin-specific protease 6; assay: SAR Analysis of small molecule inhibitors of Sentrin-specific protease 6 (SENP6) using a Luminescent assay. [Related pubchem assays (depositor defined):AID2582, AID2599]; type: functional
# [11] = biological target: T3, Sentrin-specific protease 7; assay: inhibition of human SENP7 cleavage activity – biochemical, luminescence, SAR follow-up (AID 504497); type: functional
# [12] = biological target: Benomyl/methotrexate resistance protein (Candida albicans, UniProt P28873); assay: Candida albicans Mdr1 pump inhibition curves – singleplex, Cherry Pick1 hits, dose response (AID 588608); type: functional
# HeLa = assay: ATP-based viability loss in HeLa cells – cell-based, CellTiter-Glo luminescence, cherry-pick samples, cytotoxicity control for MITF activator project, dose response (AID 540259); type: functional; conditions: Homo sapiens
# [13] = biological target: G-protein coupled receptor 55 (Homo sapiens, UniProt Q9Y2T6); assay: selective activators of receptor GPR55 – imaging, U2OS cells, beta-arrestin-GFP redistribution, primary screen (AID 1961); type: functional
# [14] = biological target: Beta-2 adrenergic receptor (Homo sapiens, UniProt P07550); assay: ADRB2 activation measured by internalization – cell-based, FAP fluorogen, flow cytometry, cherry pick 1, dose response (AID 588763); type: functional
# [15] = biological target: Apoptotic protease-activating factor 1 (Homo sapiens, UniProt O14727); assay: SAR analysis of small molecule Activators of Apaf-1 in a Fluorescent assay.; type: functional; conditions: read-out: EC50_Mean;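 further: caspase-3 cleavage of fluorogenic Rh110 DEVD substrate downstream of apoptosome activation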
# Trypsin = Trypsin (Sus scrofa, UniProt P00761); assay: trypsin protease activity blockade – biochemical, quenched peptide fluorescence, cherry-pick, selectivity assay for Rce1 protease inhibitor project, dose response (AID 488789)
# CAAX prenyl protease 2 [16] = biological target: T6, CAAX prenyl protease 2 (Saccharomyces cerevisiae S288c, UniProt Q03530); type: biochemical
# T6 sequence (Q03530 whole entry): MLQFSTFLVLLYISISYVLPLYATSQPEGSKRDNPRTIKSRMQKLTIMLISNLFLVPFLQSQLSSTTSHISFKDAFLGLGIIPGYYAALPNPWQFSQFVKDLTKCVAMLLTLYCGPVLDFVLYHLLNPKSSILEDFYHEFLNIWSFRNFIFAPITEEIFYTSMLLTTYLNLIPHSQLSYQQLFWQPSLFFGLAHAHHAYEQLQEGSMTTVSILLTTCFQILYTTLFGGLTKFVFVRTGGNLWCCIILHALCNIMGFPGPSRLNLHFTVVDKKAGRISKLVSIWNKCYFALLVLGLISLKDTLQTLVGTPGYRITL
# CAAX prenyl protease 2 [17] = biological target: CAAX prenyl protease 2 (Homo sapiens, UniProt Q9Y256); assay: inhibition of Ras-converting CAAX protease Rce1 – biochemical, yeast membranes, quenched-peptide fluorescence, cherry-pick, dose response (AID 588849)
# Caspase-6 = biological target: T7, Caspase-6 (Homo sapiens, UniProt P55212); assay: inhibition of CASP6 peptide cleavage – biochemical, VEID-R110 fluorescence, cherry-pick, dose response (AID 720632)
# T7 sequence (P55212 whole entry): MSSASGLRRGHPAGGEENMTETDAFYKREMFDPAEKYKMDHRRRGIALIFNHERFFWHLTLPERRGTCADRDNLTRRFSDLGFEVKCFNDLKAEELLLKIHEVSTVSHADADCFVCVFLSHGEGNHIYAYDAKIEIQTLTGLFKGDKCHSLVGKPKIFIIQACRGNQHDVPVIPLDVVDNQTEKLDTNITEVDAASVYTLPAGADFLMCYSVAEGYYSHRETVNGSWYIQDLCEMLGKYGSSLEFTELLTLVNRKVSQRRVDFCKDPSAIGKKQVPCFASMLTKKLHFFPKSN
# [18] = biological target: 26S proteasome non-ATPase regulatory subunit 14 (Homo sapiens, UniProt O00487); assay: inhibition of proteasome subunit RPN11 – biochemical, fluorescence polarization, uHTS hits, confirmation (AID 602368); type: functional
# [19] = biological target: 72 kDa type IV collagenase (Homo sapiens, UniProt P08253); assay: Dose Response validation of uHTS RPN11 inhibitor hits using a MMP-2 Fluorescence assay.; type: functional
# Prothrombin = Prothrombin (Bos taurus, UniProt P00735); assay: thrombin protease inhibitors – biochemical, fluorescence polarization, uHTS hits, dose response (AID 602369); type: functional
# Sequence of Voltage-dependent T-type calcium channel subunit alpha-1H (O95180 whole entry): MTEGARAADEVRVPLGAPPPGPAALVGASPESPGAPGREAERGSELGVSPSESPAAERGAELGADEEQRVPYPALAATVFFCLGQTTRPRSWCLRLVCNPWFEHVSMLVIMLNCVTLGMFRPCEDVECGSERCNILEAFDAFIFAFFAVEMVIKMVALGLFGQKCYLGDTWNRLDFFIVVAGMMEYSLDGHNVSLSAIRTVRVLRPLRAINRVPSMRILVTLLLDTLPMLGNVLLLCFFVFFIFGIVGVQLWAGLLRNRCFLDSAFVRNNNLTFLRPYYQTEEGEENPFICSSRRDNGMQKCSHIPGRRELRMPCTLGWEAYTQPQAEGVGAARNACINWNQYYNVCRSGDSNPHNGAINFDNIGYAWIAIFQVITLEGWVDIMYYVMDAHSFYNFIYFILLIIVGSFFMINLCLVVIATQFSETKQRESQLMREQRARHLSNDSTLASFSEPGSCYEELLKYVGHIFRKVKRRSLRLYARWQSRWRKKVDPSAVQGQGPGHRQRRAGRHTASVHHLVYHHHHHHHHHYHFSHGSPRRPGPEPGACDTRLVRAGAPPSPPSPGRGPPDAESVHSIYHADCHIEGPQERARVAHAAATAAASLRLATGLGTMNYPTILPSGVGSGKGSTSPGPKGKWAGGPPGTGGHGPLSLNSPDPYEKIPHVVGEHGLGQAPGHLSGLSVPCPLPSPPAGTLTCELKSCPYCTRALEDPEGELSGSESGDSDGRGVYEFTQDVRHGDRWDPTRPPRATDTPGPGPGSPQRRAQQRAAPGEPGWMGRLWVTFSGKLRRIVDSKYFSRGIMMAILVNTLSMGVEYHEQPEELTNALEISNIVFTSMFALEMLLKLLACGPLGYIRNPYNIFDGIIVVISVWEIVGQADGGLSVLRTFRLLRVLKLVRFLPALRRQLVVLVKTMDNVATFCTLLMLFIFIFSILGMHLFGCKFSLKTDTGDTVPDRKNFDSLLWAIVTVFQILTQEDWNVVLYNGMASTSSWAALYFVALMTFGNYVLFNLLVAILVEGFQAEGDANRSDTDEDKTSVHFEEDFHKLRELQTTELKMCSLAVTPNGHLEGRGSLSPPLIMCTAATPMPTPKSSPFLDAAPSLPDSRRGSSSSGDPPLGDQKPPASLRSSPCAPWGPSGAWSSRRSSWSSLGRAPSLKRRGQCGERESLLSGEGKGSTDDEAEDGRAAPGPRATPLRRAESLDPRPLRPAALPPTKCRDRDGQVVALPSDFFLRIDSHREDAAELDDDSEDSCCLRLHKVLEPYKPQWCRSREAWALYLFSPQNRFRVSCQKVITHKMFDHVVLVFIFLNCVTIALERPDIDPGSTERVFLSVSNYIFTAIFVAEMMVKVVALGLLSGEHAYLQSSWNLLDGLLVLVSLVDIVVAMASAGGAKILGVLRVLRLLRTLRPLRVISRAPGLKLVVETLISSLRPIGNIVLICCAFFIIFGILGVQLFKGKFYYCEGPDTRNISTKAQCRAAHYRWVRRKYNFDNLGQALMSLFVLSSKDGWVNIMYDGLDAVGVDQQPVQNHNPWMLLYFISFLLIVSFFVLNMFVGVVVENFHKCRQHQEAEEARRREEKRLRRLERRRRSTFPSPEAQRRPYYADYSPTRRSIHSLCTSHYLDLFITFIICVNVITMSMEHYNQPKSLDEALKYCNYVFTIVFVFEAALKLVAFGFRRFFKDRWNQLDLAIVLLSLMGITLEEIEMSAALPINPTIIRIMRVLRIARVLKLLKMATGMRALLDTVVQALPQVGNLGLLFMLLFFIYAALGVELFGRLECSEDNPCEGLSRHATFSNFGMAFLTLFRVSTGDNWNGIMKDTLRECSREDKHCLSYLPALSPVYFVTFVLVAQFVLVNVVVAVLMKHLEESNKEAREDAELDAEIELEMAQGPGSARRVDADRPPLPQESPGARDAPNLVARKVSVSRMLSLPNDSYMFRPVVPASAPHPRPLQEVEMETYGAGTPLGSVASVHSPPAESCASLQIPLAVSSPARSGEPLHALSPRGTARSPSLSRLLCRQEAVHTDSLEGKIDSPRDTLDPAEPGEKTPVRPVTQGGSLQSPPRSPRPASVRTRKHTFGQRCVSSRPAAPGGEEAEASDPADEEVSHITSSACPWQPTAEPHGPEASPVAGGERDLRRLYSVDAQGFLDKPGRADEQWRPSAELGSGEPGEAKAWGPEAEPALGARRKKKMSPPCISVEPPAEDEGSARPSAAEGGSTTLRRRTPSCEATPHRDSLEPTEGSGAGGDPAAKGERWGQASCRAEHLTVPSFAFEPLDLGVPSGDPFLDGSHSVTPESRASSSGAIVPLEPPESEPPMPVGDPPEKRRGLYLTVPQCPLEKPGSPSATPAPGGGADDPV
# Sequence of 72 kDa type IV collagenase (P08253 whole entry): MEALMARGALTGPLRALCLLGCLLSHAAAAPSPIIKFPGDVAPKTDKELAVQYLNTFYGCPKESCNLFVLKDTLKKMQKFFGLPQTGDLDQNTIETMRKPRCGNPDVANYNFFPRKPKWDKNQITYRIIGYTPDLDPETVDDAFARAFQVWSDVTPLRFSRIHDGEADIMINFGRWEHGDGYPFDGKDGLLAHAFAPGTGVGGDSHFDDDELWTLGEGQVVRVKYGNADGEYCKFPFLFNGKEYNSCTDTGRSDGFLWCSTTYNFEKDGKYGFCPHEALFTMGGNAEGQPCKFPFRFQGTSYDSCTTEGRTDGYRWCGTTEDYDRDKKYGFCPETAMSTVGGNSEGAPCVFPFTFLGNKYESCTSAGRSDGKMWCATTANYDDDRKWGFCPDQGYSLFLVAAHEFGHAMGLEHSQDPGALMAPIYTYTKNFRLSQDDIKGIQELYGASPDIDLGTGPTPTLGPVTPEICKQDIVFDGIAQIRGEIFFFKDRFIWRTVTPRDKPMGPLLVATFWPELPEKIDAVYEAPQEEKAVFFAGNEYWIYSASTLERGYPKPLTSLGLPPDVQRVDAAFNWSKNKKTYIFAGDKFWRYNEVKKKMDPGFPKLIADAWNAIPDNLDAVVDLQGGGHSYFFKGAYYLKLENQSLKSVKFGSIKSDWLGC
# Sequence of 26S proteasome non-ATPase regulatory subunit 14 (O00487 whole entry): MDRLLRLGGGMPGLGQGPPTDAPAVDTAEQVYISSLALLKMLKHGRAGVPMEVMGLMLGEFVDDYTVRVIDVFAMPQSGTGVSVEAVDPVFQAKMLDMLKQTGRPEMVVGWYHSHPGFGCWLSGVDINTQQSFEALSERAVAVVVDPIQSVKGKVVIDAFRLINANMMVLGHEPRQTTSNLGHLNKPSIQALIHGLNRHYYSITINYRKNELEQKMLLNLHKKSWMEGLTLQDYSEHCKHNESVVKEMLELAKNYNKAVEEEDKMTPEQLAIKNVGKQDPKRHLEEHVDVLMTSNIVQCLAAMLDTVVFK
# Sequence of Beta-2 adrenergic receptor (P07550 whole entry): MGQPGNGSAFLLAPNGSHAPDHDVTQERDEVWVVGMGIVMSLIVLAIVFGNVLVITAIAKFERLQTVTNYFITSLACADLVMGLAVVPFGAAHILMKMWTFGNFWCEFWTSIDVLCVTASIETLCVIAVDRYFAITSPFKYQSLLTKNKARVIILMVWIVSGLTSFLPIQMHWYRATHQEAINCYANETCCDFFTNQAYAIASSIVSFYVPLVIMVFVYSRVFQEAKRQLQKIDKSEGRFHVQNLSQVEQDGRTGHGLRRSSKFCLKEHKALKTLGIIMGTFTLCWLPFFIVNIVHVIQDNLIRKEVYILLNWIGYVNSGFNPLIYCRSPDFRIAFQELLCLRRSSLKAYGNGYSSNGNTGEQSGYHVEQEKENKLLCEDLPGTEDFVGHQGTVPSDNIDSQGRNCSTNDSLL
# Sequence of Potassium voltage-gated channel subfamily KQT member 2 (O88943 whole entry): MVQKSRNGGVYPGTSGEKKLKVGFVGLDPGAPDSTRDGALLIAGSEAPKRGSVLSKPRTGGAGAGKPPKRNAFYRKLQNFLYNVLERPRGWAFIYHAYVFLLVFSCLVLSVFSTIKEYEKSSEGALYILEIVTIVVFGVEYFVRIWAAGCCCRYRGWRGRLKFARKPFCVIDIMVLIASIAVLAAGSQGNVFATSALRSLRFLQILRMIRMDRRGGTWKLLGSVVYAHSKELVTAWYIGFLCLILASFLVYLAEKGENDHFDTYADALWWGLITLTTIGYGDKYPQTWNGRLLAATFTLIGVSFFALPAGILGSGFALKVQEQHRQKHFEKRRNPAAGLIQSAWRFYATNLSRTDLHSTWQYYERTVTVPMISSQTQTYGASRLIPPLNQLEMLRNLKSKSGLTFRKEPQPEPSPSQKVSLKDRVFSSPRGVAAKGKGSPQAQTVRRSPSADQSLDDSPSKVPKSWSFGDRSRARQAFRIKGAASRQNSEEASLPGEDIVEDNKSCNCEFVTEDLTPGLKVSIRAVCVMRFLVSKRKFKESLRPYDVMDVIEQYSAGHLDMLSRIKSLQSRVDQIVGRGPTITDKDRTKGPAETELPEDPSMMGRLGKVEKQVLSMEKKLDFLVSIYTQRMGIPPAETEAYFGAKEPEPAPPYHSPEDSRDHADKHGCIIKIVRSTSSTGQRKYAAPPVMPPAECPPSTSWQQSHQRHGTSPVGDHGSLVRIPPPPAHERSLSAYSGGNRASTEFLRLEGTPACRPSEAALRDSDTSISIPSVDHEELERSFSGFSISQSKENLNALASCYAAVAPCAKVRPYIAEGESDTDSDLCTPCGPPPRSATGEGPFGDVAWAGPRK
# Sequence of CAAX prenyl protease 2 (Homo sapiens, UniProt Q9Y256) (Q9Y256 whole entry): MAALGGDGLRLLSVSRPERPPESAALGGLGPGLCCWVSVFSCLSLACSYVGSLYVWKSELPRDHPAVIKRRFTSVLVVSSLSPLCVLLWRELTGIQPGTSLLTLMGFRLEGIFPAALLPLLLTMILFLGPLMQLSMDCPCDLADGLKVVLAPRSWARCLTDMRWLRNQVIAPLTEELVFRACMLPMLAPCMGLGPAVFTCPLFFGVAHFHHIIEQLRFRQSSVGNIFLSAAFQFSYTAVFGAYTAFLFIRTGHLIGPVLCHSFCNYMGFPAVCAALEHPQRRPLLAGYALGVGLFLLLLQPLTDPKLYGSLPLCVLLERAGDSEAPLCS
smiles,measurement,setting,value
Fc1ccc(C(c2nnnn2C2CCCC2)N(Cc2ccco2)CC2CCCO2)cc1 (stereo unspecified),EC50,[1],3.83 µM (active)
same,EC50,[2],14.5 µM (active)
COc1ccc(-c2nc(CSCC(=O)NC3CCCc4ccccc43)c(C)o2)cc1 (stereo unspecified),EC50,[1],3.95 µM (active)
same,IC50,[3],1.76 µM (active)
Cc1ccc(NC(=O)C(=O)c2c[nH]c3ccccc23)cc1,IC50,Caspase-3 [4],18.6 µM (active)
same,IC50,[5],2.41 µM (active)
same,IC50,[6],> 100 µM (inactive)
same,IC50,[7],> 100 µM (inactive)
same,IC50,[8],> 99 µM (inactive)
same,IC50,Caspase-3 [9],9.05 µM (active)
same,IC50,[10],> 99 µM (inactive)
same,IC50,[11],2.33 µM (active)
COc1ccc(C2CC(c3ccccc3C(F)(F)F)=NN2c2ccc(S(N)(=O)=O)cc2)cc1 (stereo unspecified),EC50,[12],22.6 µM (active)
C/C(=N/OC(=O)CC(C)C)c1cc(-c2ccc(Cl)cc2)no1,AC50,HeLa,58.7 µM (active)
CCc1ccc(Nc2n[n+](-c3ccccc3)c(-c3ccc(SC)cc3)s2)cc1,EC50,[13],23.1 µM (inactive)
same,EC50,[2],10.2 µM (active)
CC1(C)CNC(=O)c2sc(NC(=O)c3ccccc3)nc2C1,AC50,HeLa,55 µM (active)
Cc1ccc(OCc2cc(C(=O)NCc3ccc(OC(F)(F)F)cc3)no2)cn1,EC50,[14],0.792 µM (active)
O=C(Nc1cccc(O)c1)C1CC(c2ccc(F)cc2)=NO1 (stereo unspecified),EC50,[15],> 100 µM (inactive)
Nc1ccc(Cc2ccc(N)c(C(=O)O)c2)cc1C(=O)O,AC50,Trypsin,7.3 µM (active)
same,AC50,CAAX prenyl protease 2 [16],32.3 µM (active)
same,AC50,CAAX prenyl protease 2 [17],2.25 µM (active)
same,AC50,Caspase-6,37.8 µM (active)
CC1CCN(c2ccc3c(c2)S(=O)(=O)c2cccc(C(=O)NC4CCCCC4)c2C3=O)CC1,IC50,[18],14.1 µM (active)
same,IC50,[19],> 100 µM (inactive)
same,IC50,Prothrombin,26.8 µM (active)
